The experiment concerns the target T1, recombinant human ALK enzyme (ALK WT) (Homo sapiens, UniProt Q9UM73).
T1 construct: purchased Carna Biosciences 08-518
Put plainly: ALK WT cell free enzymatic assay (TR-FRET). The experiment is classed as biochemical. The following applies: 1 μM ATP; for IC50: 10 point dose response; for inhibition at 0.1 µM: compound at 100 nM; for inhibition at 0.1 µM / inhibition at 1 µM: 30 min pre-incubation; for inhibition at 1 µM: compound at 1 μM. Here is the method: ALK Wild Type (WT) The ALK WT cell free assay was set up to evaluate the effects of these compounds as inhibitors of ALK enzyme. The enzymatic assay was standardized using recombinant human ALK enzyme (Cat#08-518) from Carna Biosciences using Ultra Light Poly GT (Cat# TRF 0100D) from Perkin Elmer as a substrate. TR-FRET (Time resolved fluorescence resonance energy transfer) detection technology was used for the read out. The final assay conditions were 50 mM HEPES pH 7.1, 10 mM MgCl2, 2 mM MnCl2, 0.01% BSA, 2.5 mM DTT, 0.1 mM Na3 VO4, 40 nM Ultra Light Poly GT, 2.5 ng ALK WT enzyme, 1 μM ATP and 125 nM Lance Eu-W1024 labeled anti phospho tyrosine antibody (Cat# AD0203, Perkin Elmer) in 384 well format. The assay reaction time with the substrate was 30 minutes after which the antibody detection mix is added. The TR-FRET signal (Excitation at 340 nm, Emission at 615 nm and 665 nm) was read with 50 μs delay time on Victor^3 V fluorimeter. The data is calculated using the ratio of reading at 665 nM to 615 nM. The final concentration of DMSO was 1% in the assay. Compounds were screened at 100 nM and 1 μM concentrations with pre-incubation of the enzymes with compound for 30 minutes. Each individual IC50 was determined using 10 point dose response curve generated by GraphPad Prism software Version 4 (San Diego, Calif., USA) using non linear regression curve fit for sigmoidal dose response (variable slope). Percentage inhibition at concentrations of 100 nM and 1.0 μM are given in table along with the IC50 (nM) details for selected examples.
(In general: Time-resolved FRET reads energy transfer from a long-lived donor to a nearby acceptor.)

Among the data in US9353107B2 (Aurigene Discovery Technologies Limited, priority 2012, dated 2016) are IC50 and inhibition values, retold here.

Each structure is given as a SMILES string. Structures can show the parent of a compound that is named as a salt.

T1 sequence (Q9UM73 1058-1620 limits assumed): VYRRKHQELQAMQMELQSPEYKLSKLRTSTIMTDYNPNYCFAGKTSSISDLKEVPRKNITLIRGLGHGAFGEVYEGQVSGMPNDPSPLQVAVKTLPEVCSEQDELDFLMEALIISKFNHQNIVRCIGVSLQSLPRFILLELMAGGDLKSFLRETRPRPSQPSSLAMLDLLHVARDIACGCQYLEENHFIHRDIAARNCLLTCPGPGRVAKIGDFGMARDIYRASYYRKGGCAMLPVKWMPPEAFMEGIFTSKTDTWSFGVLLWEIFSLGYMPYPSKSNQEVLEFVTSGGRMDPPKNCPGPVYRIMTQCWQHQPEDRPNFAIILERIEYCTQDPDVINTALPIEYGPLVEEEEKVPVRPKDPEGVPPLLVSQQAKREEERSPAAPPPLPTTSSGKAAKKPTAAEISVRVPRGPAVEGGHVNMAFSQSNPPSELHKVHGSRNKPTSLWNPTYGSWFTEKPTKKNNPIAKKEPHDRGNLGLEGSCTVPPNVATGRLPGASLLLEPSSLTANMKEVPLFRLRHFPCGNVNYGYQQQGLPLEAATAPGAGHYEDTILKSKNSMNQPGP

One may read the IC50 as the midpoint of a concentration-inhibition curve. Broadly, the inhibition is the change of the read-out against control, counted positive when it falls. Regarding `Fc1cc(F)cc(Cn2ccc(-c3c[nH]c4ncc(-c5ccc(N6CCNCC6)cc5)cc34)n2)c1` [Example 111, 3-(1-(3,5-difluorobenzyl)-1H-pyrazol-3-yl)-5-(4-(piperazin-1-yl)phenyl)-1H-pyrrolo[2,3-b]pyridine], the concentration for half-maximal inhibition (IC50) was < 50 nM, the inhibition at 0.1 µM was 82% and the inhibition at 1 µM was found to be 100%.

Regarding `CS(=O)(=O)Nc1cc(-c2cnc3[nH]cc(-c4cnn(Cc5cccc(F)c5)c4)c3c2)ccc1N1CCOCC1` [Example 17, N-(5-(3-(1-(3-fluorobenzyl)-1H-pyrazol-4-yl)-1H-pyrrolo[2,3-b]pyridin-5-yl)-2-morpholinophenyl)methanesulfonamide], the inhibition at 0.1 µM came to 13% and the inhibition at 1 µM worked out at 53%.

For `COc1ncc(-c2cnc3[nH]cc(-c4cnn(Cc5cccc(F)c5)c4)c3c2)cc1N` [Example 65, 5-(3-(1-(3-fluorobenzyl)-1H-pyrazol-4-yl)-1H-pyrrolo[2,3-b]pyridin-5-yl)-2-methoxypyridin-3-amine], the IC50 is < 50 nM, the inhibition at 0.1 µM is 97% and the inhibition at 1 µM worked out at 100%.

Consider `COc1cc(-c2cnc3[nH]cc(-c4cnn(Cc5cccc(F)c5)c4)c3c2)ccc1C1CCNCC1` [Example 86, 3-(1-(3-fluorobenzyl)-1H-pyrazol-4-yl)-5-(3-methoxy-4-(piperidin-4-yl)phenyl)-1H-pyrrolo[2,3-b]pyridine], for which the IC50 is < 50 nM, the inhibition at 0.1 µM stood at 96% and the inhibition at 1 µM is 98%.

Take `Cc1nn(Cc2cccc(F)c2)c(C)c1-c1c[nH]c2ncc(-c3ccc(N4CCN(CCN(C)C)CC4)cc3)cc12` [Example 57, 2-(4-(4-(3-(1-(3-fluorobenzyl)-3,5-dimethyl-1H-pyrazol-4-yl)-1H-pyrrolo[2,3-b]pyridin-5-yl)phenyl)piperazin-1-yl)-N,N-dimethylethanamine]: the IC50 is < 50 nM, the inhibition at 0.1 µM was determined as 93% and the inhibition at 1 µM worked out at 100%.

With `COc1ccc(-c2cnc3[nH]cc(-c4cnn(CCc5ccccc5)c4)c3c2)cc1NS(C)(=O)=O` [Example 64, N-(2-methoxy-5-(3-(1-phenethyl-1H-pyrazol-4-yl)-1H-pyrrolo[2,3-b]pyridin-5-yl)phenyl) methanesulfonamide], the IC50 is < 50 nM, the inhibition at 0.1 µM was determined as 59% and the inhibition at 1 µM came out at 82%.

For the compound `CN1CCC(c2ccc(-c3cnc4[nH]cc(-c5cnn(Cc6cccc(F)c6)c5)c4c3)cc2F)CC1` [Example 170, 5-(3-fluoro-4-(1-methylpiperidin-4-yl)phenyl)-3-(1-(3-fluorobenzyl)-1H-pyrazol-4-yl)-1H-pyrrolo[2,3-b]pyridine], the IC50 was < 50 nM, the inhibition at 0.1 µM is 98% and the inhibition at 1 µM stood at 100%.

As to `c1ccc(CCn2cc(-c3c[nH]c4ncc(-c5cccc(CC6CCNCC6)c5)cc34)cn2)cc1` [Example 98, 3-(1-phenethyl-1H-pyrazol-4-yl)-5-(3-(piperidin-4-ylmethyl)phenyl)-1H-pyrrolo[2,3-b]pyridine], the IC50 was in the range of 50 to 250 nM, the inhibition at 0.1 µM is 24% and the inhibition at 1 µM came out at 95%.

`CC(C)(C)OC(=O)N1CCN(c2cccc(-c3cnc4[nH]cc(-c5cnn(Cc6cc(F)ccc6F)c5)c4c3)c2)CC1` [Example 31, tert-butyl 4-(3-(3-(1-(2,5-difluorobenzyl)-1 h-pyrazol-4-yl)-1 h-pyrrolo[2,3-b]pyridin-5-yl)phenyl)piperazine-1-carboxylate]: the IC50 was > 250 nM and the inhibition at 1 µM worked out at 55%.

`C[C@H](O)CN1CCN(c2ccc(-c3cnc4[nH]cc(-c5cnn(Cc6ccccc6)c5)c4c3)cn2)CC1` [Example 148, (S)-1-(4-(5-(3-(1-benzyl-1H-pyrazol-4-yl)-1H-pyrrolo[2,3-b]pyridin-5-yl)pyridin-2-yl)piperazin-1-yl)propan-2-ol]: the IC50 is < 50 nM, the inhibition at 0.1 µM is 94% and the inhibition at 1 µM came to 100%.

As to `Fc1cccc(Cn2cc(-c3c[nH]c4ncc(-c5cnc(N6CCNCC6)c(F)c5)cc34)cn2)c1` [Example 173, 5-(5-fluoro-6-(piperazin-1-yl)pyridin-3-yl)-3-(1-(3-fluorobenzyl)-1H-pyrazol-4-yl)-1H-pyrrolo[2,3-b]pyridine], the IC50 was < 50 nM, the inhibition at 0.1 µM turned out to be 92% and the inhibition at 1 µM was 98%.

Regarding `CN(C)CC(=O)N1CCN(c2ccc(-c3cnc4[nH]cc(-c5cnn(Cc6cccc(F)c6)c5)c4c3)cn2)CC1` [Example 147, 2-(dimethylamino)-1-(4-(5-(3-(1-(3-fluorobenzyl)-1H-pyrazol-4-yl)-1H-pyrrolo[2,3-b]pyridin-5-yl)pyridin-2-yl)piperazin-1-yl)ethanone], the IC50 was < 50 nM, the inhibition at 0.1 µM came out at 99% and the inhibition at 1 µM worked out at 100%.

On to `C[C@H](O)CN1CCN(c2ccc(-c3cnc4[nH]cc(-c5cnn(Cc6ccccc6)c5)c4c3)cc2)CC1` [Example 118, (S)-1-(4-(4-(3-(1-benzyl-1H-pyrazol-4-yl)-1H-pyrrolo[2,3-b]pyridin-5-yl)phenyl)piperazin-1-yl)propan-2-ol], for which the IC50 was < 50 nM, the inhibition at 0.1 µM was 94% and the inhibition at 1 µM came out at 98%.

In the case of `COc1cc(-c2cnc3[nH]cc(-c4c(C)nn(Cc5cccc(F)c5)c4C)c3c2)cnc1N` [Example 178, 5-(3-(1-(3-fluorobenzyl)-3,5-dimethyl-1H-pyrazol-4-yl)-1H-pyrrolo[2,3-b]pyridin-5-yl)-3-methoxypyridin-2-amine], the IC50 is < 50 nM, the inhibition at 0.1 µM stood at 94% and the inhibition at 1 µM was 100%.

As for `COc1cc(N2CCN(C[C@H](C)O)CC2)ccc1-c1cnc2[nH]cc(-c3cnn(Cc4cccc(F)c4)c3)c2c1` [Example 116, (S)-1-(4-(4-(3-(1-(3-fluorobenzyl)-1H-pyrazol-4-yl)-1H-pyrrolo[2,3-b]pyridin-5-yl)-3-methoxyphenyl)piperazin-1-yl)propan-2-ol], the IC50 was in the range of 50 to 250 nM, the inhibition at 0.1 µM was 68% and the inhibition at 1 µM amounted to 97%.

`CN1CCN(c2ccc(-c3cnc4[nH]cc(-c5cnn(CCc6ccccc6)c5)c4c3)cc2)CC1` [Example 109, 5-(4-(4-methylpiperazin-1-yl)phenyl)-3-(1-phenethyl-1H-pyrazol-4-yl)-1H-pyrrolo[2,3-b]pyridine]: the inhibition at 0.1 µM came to 76% and the inhibition at 1 µM is 100%.

For the compound `Cc1c(-c2c[nH]c3ncc(-c4ccc(N5CCN(C[C@H](C)O)CC5)cc4)cc23)cnn1Cc1cccc(F)c1` [Example 129, (S)-1-(4-(4-(3-(1-(3-fluorobenzyl)-5-methyl-1H-pyrazol-4-yl)-1H-pyrrolo[2,3-b]pyridin-5-yl)phenyl)piperazin-1-yl)propan-2-ol], the IC50 was < 50 nM, the inhibition at 0.1 µM came out at 96% and the inhibition at 1 µM is 99%.

Turning to `Cc1nn(Cc2cccc(F)c2)c(C)c1-c1c[nH]c2ncc(-c3ccc(N4CCOCC4)cc3)cc12` [Example 45, 4-(4-(3-(1-(3-fluorobenzyl)-3,5-dimethyl-1H-pyrazol-4-yl)-1H-pyrrolo[2,3-b]pyridin-5-yl)phenyl) morpholine], the IC50 lay in the range of 50 to 250 nM, the inhibition at 0.1 µM is 51% and the inhibition at 1 µM was determined as 80%.

Turning to `c1ccc(CCn2cc(-c3c[nH]c4ncc(-c5ccc(N6CCNCC6)cc5)cc34)cn2)cc1` [Example 185, 3-(1-phenethyl-1H-pyrazol-4-yl)-5-(4-(piperazin-1-yl)phenyl)-1H-pyrrolo[2,3-b]pyridine], the inhibition at 0.1 µM is 80% and the inhibition at 1 µM came out at 86%.

With `c1ccc(CCn2cc(-c3c[nH]c4ncc(-c5cccc(NC6CCNCC6)c5)cc34)cn2)cc1` [Example 95, N-(3-(3-(1-phenethyl-1H-pyrazol-4-yl)-1H-pyrrolo[2,3-b]pyridin-5-yl)phenyl)piperidin-4-amine], the IC50 was in the range of 50 to 250 nM, the inhibition at 0.1 µM is 83% and the inhibition at 1 µM came out at 99%.

For `Cc1cc(-c2cnc3[nH]cc(-c4cnn(Cc5cccc(F)c5)c4)c3c2)ccc1N1CCN(C[C@H](C)O)CC1` [Example 115, (S)-1-(4-(4-(3-(1-(3-fluorobenzyl)-1H-pyrazol-4-yl)-1H-pyrrolo[2,3-b]pyridin-5-yl)-2-methylphenyl)piperazin-1-yl)propan-2-ol], the inhibition at 0.1 µM is 94% and the inhibition at 1 µM stood at 100%.

On to `Cc1nn(Cc2cccc(F)c2)c(C)c1-c1c[nH]c2nc(C3CC3)c(-c3ccc(N4CCNCC4)cc3)cc12` [Example 55, 6-cyclopropyl-3-(1-(3-fluorobenzyl)-3,5-dimethyl-1H-pyrazol-4-yl)-5-(4-(piperazin-1-yl)phenyl)-1H-pyrrolo[2,3-b]pyridine hydrochloride], for which the inhibition at 0.1 µM was 2% and the inhibition at 1 µM stood at 43%.
